Reference: US20250066389A1, “HETEROCYCLIC AMIDES AND METHODS OF USING THE SAME” (Rgenta Therapeutics, Inc., priority 2021, published 2025)

test system: PMS1; assay: Mini-Gene Reporter Assay—PMS1 (firefly luciferase mini-gene reporter transiently transfected into HEK293 cells); format: cell-based; details: Homo sapiens; at 5 uM; mini-gene firefly luciferase reporter in HEK293 cells; read-out: PMS1 % Effect at 5 uM
Method in brief: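 Luminescence (RLU) read-out of exon inclusion: compound dilutions, tested in duplicate, act on transiently transfected HEK293 cells carrying a firefly luciferase reporter fused downstream of the PMS1 skipped-exon region. Potency derived by Levenberg-Marquardt curve fitting, with percent effect at 5 μM.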

| SMILES | activation at 5 µM [%] |
| --- | --- |
| CCOc1cc2nn(C)cc2cc1C(=O)Nc1cnc(NCC2CCCNC2)nc1 (stereo not shown) [Compound 483] | < 50 |
| CCOc1cc2nn(C)cc2cc1C(=O)Nc1cnc(N(C)CCNC)nc1 [Compound 484] | < 50 |
| CCOc1cc2nn(C)cc2cc1C(=O)Nc1cnc(N2CCCNCC2)nc1 [Compound 485] | < 50 |
| CCOc1cc2nn(C)cc2cc1C(=O)Nc1cnc(N2CCNC(C)C2)nc1 (stereo not shown) [Compound 487] | > 75 |
| CCOc1cn2nc(C)cc2cc1C(=O)Nc1cnc(NCC2(F)CNCCOC2)cn1 (stereo not shown) [Compound 489] | < 50 |
| CCOc1cn2nc(C)cc2cc1C(=O)Nc1cnc(N2CCNC(CC(F)(F)F)C2)cn1 (stereo not shown) [Compound 490] | 50 to 75 |
| CCOc1cn2nc(C)cc2cc1C(=O)Nc1cnc(N2CC3CCC2C2CNCC32)cn1 (stereo not shown) [Compound 492] | 50 to 75 |
| CCOc1cn2nc(C)cc2cc1C(=O)Nc1cnc(NCC2(F)CC(N)C2)cn1 (stereo not shown) [Compound 493] | < 50 |
| CCOc1cn2nc(C)cc2cc1C(=O)Nc1cnc(NC2CCCCC23CCNC3)cn1 (stereo not shown) [Compound 494] | < 50 |
| CCOc1cn2nc(C)cc2cc1C(=O)Nc1cnc(NCC2CNCC23CC3)cn1 (stereo not shown) [Compound 496] | > 75 |
| CCOc1cn2nc(C)cc2cc1C(=O)Nc1cnc(NC2CCC3CC2CN3)cn1 (stereo not shown) [Compound 497] | > 75 |
| CCOc1cn2nc(C)cc2cc1C(=O)Nc1cnc(N2CCCCC3(CCNC3)C2)cn1 (stereo not shown) [Compound 499] | < 50 |
| CCOc1cn2nc(C)cc2cc1C(=O)Nc1cnc(NC2CNCC2(C)C)cn1 (stereo not shown) [Compound 500] | < 50 |
| CCOc1cn2nc(C)cc2cc1C(=O)Nc1cnc(N2CCC(N)(CC)CC2)cn1 [Compound 502] | > 75 |
| CCOc1cn2nc(C)cc2cc1C(=O)Nc1cnc(N2CC(NC)C(C)(C)C2)cn1 (stereo not shown) [Compound 503] | > 75 |
| CCOc1cn2nc(C)cc2cc1C(=O)Nc1cnc(N2CCC(C3(O)CCNCC3)CC2)cn1 [Compound 505] | 50 to 75 |
| CCOc1cn2nc(C)cc2cc1C(=O)Nc1cnc(N2CCC(n3ncc4c3CNC4)CC2)cn1 [Compound 507] | < 50 |
| CCOc1cn2nc(C)cc2cc1C(=O)Nc1cnc(NC2CNCC23CCC3)cn1 (stereo not shown) [Compound 509] | < 50 |
| CCOc1cn2nc(C)cc2cc1C(=O)Nc1cnc(N2CCOC3(CCCNC3)C2)cn1 (stereo not shown) [Compound 510] | < 50 |
| CCOc1cn2nc(C)cc2cc1C(=O)Nc1cnc(NC2CCN(C(=O)CCCNC)CC2)cn1 [Compound 513] | < 50 |

| SMILES | activation at 5 µM [%] |
| --- | --- |
| CCOc1cn2nc(C)cc2cc1C(=O)Nc1cnc(NCC[C@@H]2CCNC2)cn1 [Compound 516] | < 50 |
| CCOc1cn2nc(C)cc2cc1C(=O)Nc1cnc(N2CCC(NCC3CC3)CC2)cn1 [Compound 517] | > 75 |
| CCOc1cn2nc(C)cc2cc1C(=O)Nc1cnc(NC(CNC)Cc2ccccc2)cn1 (stereo not shown) [Compound 518] | < 50 |
| CCOc1cn2nc(C)cc2cc1C(=O)Nc1cnc(N(C)C[C@@H]2CCCCN2)cn1 [Compound 519] | > 75 |
| CCOc1cn2nc(C)cc2cc1C(=O)Nc1cnc(N2CCCC(C)(CN)C2)cn1 (stereo not shown) [Compound 522] | < 50 |
| CCOc1cn2nc(C)cc2cc1C(=O)Nc1cnc(N2CCC(COC3CCNC3)CC2)cn1 (stereo not shown) [Compound 523] | < 50 |
| CCOc1cn2nc(C)cc2cc1C(=O)Nc1cnc(N2CCN(CC3CCCNC3)CC2)cn1 (stereo not shown) [Compound 524] | < 50 |
| CCOc1cn2nc(C)cc2cc1C(=O)Nc1cnc(N2CCCC2CNC)cn1 (stereo not shown) [Compound 525] | 50 to 75 |
| CCOc1cn2nc(C)cc2cc1C(=O)Nc1cnc(N(C)C[C@@H]2CCCN2)cn1 [Compound 526] | > 75 |
| CCOc1cn2nc(C)cc2cc1C(=O)Nc1cnc(N2CCC(CCNC)CC2)cn1 [Compound 527] | < 50 |
| CCOc1cn2nc(C)cc2cc1C(=O)Nc1cnc(NCC2(C)CCNC2)cn1 (stereo not shown) [Compound 528] | < 50 |
| CCOc1cn2nc(C)cc2cc1C(=O)Nc1cnc(N2CCOC3(CCNC3)C2)cn1 (stereo not shown) [Compound 529] | 50 to 75 |
| CCOc1cn2nc(C)cc2cc1C(=O)Nc1cnc(N2CCC3(CCCN3)CC2)cn1 [Compound 530] | > 75 |
| CCOc1cn2nc(C)cc2cc1C(=O)Nc1cnc(NCCNCCOC)cn1 [Compound 531] | < 50 |
| CCOc1cn2nc(C)cc2cc1C(=O)Nc1cnc(NC[C@@H]2CC(F)(F)CN2)cn1 [Compound 532] | < 50 |
| CCOc1cn2nc(C)cc2cc1C(=O)Nc1cnc(N2CC3CNCC(C3)C2)cn1 [Compound 533] | < 50 |
| CCOc1cn2nc(C)cc2cc1C(=O)Nc1cnc(N(C)CC2CCCN2)cn1 (stereo not shown) [Compound 534] | 50 to 75 |
| CCOc1cn2nc(C)cc2cc1C(=O)Nc1cnc(N2CC(N)CC(O)C2)cn1 (stereo not shown) [Compound 535] | > 75 |
| CCOc1cn2nc(C)cc2cc1C(=O)Nc1cnc(NCC2(F)CNC2)cn1 [Compound 536] | < 50 |
| CCOc1cn2nc(C)cc2cc1C(=O)Nc1cnc(NC2COC3(CNC3)C2)cn1 (stereo not shown) [Compound 537] | < 50 |

| SMILES | activation at 5 µM [%] |
| --- | --- |
| CCOc1cn2nc(C)cc2cc1C(=O)Nc1cnc(N(C)CC2CCNC2)cn1 (stereo not shown) [Compound 538] | 50 to 75 |
| CCOc1cn2nc(C)cc2cc1C(=O)Nc1cnc(NC[C@@H]2C[C@H](F)CN2)cn1 [Compound 539] | < 50 |
| CCCC[C@H]1CN(c2cnc(NC(=O)c3cc4cc(C)nn4cc3OCC)cn2)CCN1 [Compound 540] | > 75 |
| CCOc1cn2nc(C)cc2cc1C(=O)Nc1cnc(N2CC(N3CCNCC3)C2)cn1 [Compound 541] | < 50 |
| CCOc1cn2nc(C)cc2cc1C(=O)Nc1cnc(N2CCC3(CC2)CNCCO3)cn1 [Compound 542] | < 50 |
| CCOc1cn2nc(C)cc2cc1C(=O)Nc1cnc(N2CCCC(CCN)C2)cn1 (stereo not shown) [Compound 544] | < 50 |
| CCOc1cn2nc(C)cc2cc1C(=O)Nc1cnc(N2CCOC3(CCNCC3)C2)cn1 [Compound 545] | < 50 |
| CCOc1cn2nc(C)cc2cc1C(=O)Nc1cnc(N2CCC(NC)C2)cn1 (stereo not shown) [Compound 546] | > 75 |
| CCOc1cn2nc(C)cc2cc1C(=O)Nc1cnc(N2C[C@H]3CNC[C@H]3C2)cn1 [Compound 547] | > 75 |
| CCOc1cn2nc(C)cc2cc1C(=O)Nc1cnc(N2CC3(CCNCC3)C2)cn1 [Compound 548] | > 75 |
| CCOc1cn2nc(C)cc2cc1C(=O)Nc1cnc(N2C[C@@H]3C[C@H]2CN3)cn1 [Compound 549] | > 75 |
| CCOc1cn2nc(C)cc2cc1C(=O)Nc1cnc(NCC2CCNC2)cn1 (stereo not shown) [Compound 550] | > 75 |
| CCOc1cn2nc(C)cc2cc1C(=O)Nc1cnc(N(C)C2CCNC2)cn1 (stereo not shown) [Compound 551] | > 75 |
| CCOc1cn2nc(C)cc2cc1C(=O)Nc1cnc(NCCNC)cn1 [Compound 552] | > 75 |
| CCOc1cn2nc(C)cc2cc1C(=O)Nc1cnc(N2CCC(NC)CC2)cn1 [Compound 553] | > 75 |
| CCOc1cn2nc(C)cc2cc1C(=O)Nc1cnc(N[C@H]2CCCNC2)cn1 [Compound 554] | > 75 |
| CCOc1cn2nc(C)cc2cc1C(=O)Nc1cnc(NCC2CCNCC2)cn1 [Compound 555] | < 50 |
| CCOc1cn2nc(C)cc2cc1C(=O)Nc1cnc(N2CCC(N)C2)cn1 (stereo not shown) [Compound 556] | > 75 |
